{
  "source": "patent US20250312499A1",
  "about": "“KISSPEPTIN RECEPTOR (KISS1R) TARGETED THERAPEUTICS AND USES THEREOF” (priority 2024, published 2025)",
  "note": "Numbered stars: 1 amine (or outer) side, 2 acyl side, 3 side chain; on linkers, the order of the positions; unused ones are H or OH. Square brackets hold non-standard residues; d marks the D form. Peptide text beside a SMILES is read from it. * marks the point of attachment. DOTA = O=C(O)CN1CCN(CC(=O)O)CCN(CC(=O)*)CCN(CC(=O)O)CC1; Gly(N-(3-F-4-Me-benzyl)) = Cc1ccc(CNCC(=O)*)cc1F; Butanoyl(4-(4-I-phenyl)) = O=C(CCCc1ccc(I)cc1)*; Propanoyl(3-(MeO(CH2CH2O)2)) = COCCOCCOCCC(=O)*; Gly(N-3-F-4-Me-benzyl) = Cc1ccc(CNCC(=O)O)cc1F; Api(1-amidino) = N=C(N)N1CCC(N)(C(=O)O)CC1; Hydrocinnamoyl(4-Me) = Cc1ccc(CCC(=O)*)cc1; Hydrocinnamoyl(4-I) = O=C(CCc1ccc(I)cc1)*; Phe(4-CN) = N#Cc1ccc(C[C@H](N)C(=O)O)cc1; Phe(3-F) = N[C@@H](Cc1cccc(F)c1)C(=O)O; d2Nal = N[C@H](Cc1ccc2ccccc2c1)C(=O)O; Trx = NC[C@H]1CC[C@H](C(=O)O)CC1; X1 = O=C(CN1CCC(N[*:1])CC1)[*:2]; Cha = N[C@@H](CC1CCCCC1)C(=O)O; 4Amb = NCc1ccc(C(=O)O)cc1; Octanoyl = CCCCCCCC(=O)*; Api = NC1(C(=O)O)CCNCC1; PEG2 = NCCOCCOCCC(=O)O; Ahx = NCCCCCC(=O)O; azaGly = NNC(=O)O; Sar = CNCC(=O)O",
  "data": [
    {"target": "human kisspeptin receptor (Homo sapiens (Human), UniProt Q969F8)", "sequence (Q969F8 whole entry)": "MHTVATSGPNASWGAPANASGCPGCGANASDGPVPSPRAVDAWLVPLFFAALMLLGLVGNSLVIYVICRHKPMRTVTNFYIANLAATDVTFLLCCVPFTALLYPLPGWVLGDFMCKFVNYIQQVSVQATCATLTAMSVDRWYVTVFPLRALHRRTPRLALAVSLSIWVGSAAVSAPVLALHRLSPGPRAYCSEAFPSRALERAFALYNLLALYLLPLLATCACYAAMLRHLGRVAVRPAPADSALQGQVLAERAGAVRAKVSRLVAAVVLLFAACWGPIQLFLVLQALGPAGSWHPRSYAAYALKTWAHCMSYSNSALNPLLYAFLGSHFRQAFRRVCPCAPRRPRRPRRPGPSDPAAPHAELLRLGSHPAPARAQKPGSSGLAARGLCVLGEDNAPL", "assay": "Human KISS1R binding assay (membrane competition binding)", "details": "90 min at room temperature; competition with 0.2 nM [125I]-metastin (45-54); Flp-In T-Rex 293 kisspeptin membranes; metal complexes nonradioactive Ga, In, Lu; read-out: hKiSSR Binding Ki (90 min)", "how_it_was_run": "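Radioligand competition: 0.2 nM [125I]-metastin (45-54) displaced by test ligand (usually 0–10,000 nM) over 90 min at room temperature, pH 7.4 buffer with 0.1% BSA. Receptor source is crude membrane (5–10 μg) from tetracycline-induced Flp-In T-Rex 293 cells. Bound label filtered and counted; Ki from non-linear regression.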", "units": {"Ki": "nM"}, "values": [
      {"smiles": "Cc1ccc(CNCC(=O)N2CCC(NC(=O)[C@H](CC(C)C)NC(=O)NNC(=O)[C@H](Cc3ccccc3)NC(=O)[C@@H](NC(=O)[C@H](CC(N)=O)NC(=O)c3ccc(CNC(=O)CN4CCN(CC(=O)O)CCN(CC(=O)O)CCN(CC(=O)O)CC4)cc3)[C@@H](C)O)(C(=O)N[C@@H](Cc3ccc(C#N)cc3)C(N)=O)CC2)cc1F", "note": "[Compound 240] ({DOTA-4Amb}-NTF[azaGly]L[Api](Gly(N-(3-F-4-Me-benzyl)))[Phe(4-CN)]-NH2)", "Ki": "< 10"},
      {"smiles": "Cc1ccc(CNCC(=O)N2CCC(NC(=O)[C@H](CC(C)C)NC(=O)NNC(=O)[C@H](Cc3ccccc3)NC(=O)CN3CCN(CC(=O)O)CCN(CC(=O)O)CCN(CC(=O)O)CC3)(C(=O)N[C@@H](Cc3c[nH]c4ccccc34)C(N)=O)CC2)cc1F", "note": "[Compound 49] ({DOTA}-F[azaGly]L[Api](Gly(N-(3-F-4-Me-benzyl)))W-NH2)", "Ki": "> 100"},
      {"smiles": "CC(C)C[C@H](NC(=O)NNC(=O)[C@H](Cc1ccccc1)NC(=O)[C@@H](NC(=O)[C@H](CC(N)=O)NC(=O)[C@@H](Cc1ccc2ccccc2c1)NC(=O)[C@@H](Cc1ccc(O)cc1)NC(=O)[C@@H](CCCCNC(=O)CCCc1ccc(I)cc1)NC(=O)CCCCCNC(=O)CN1CCN(CC(=O)O)CCN(CC(=O)O)CCN(CC(=O)O)CC1)[C@@H](C)O)C(=O)NC1(C(=O)N[C@@H](Cc2c[nH]c3ccccc23)C(N)=O)CCN(C(=N)N)CC1", "note": "[Compound 336] ({DOTA-Ahx}-[dK](Butanoyl(4-(4-I-phenyl)))[dY][d2Nal]NTF[azaGly]L[Api(1-amidino)]W-NH2)", "Ki": "< 10"},
      {"smiles": "Cc1ccc(CNCC(=O)N2CCC(NC(=O)[C@H](CC(C)C)NC(=O)NNC(=O)[C@H](Cc3cccc(F)c3)NC(=O)[C@@H](NC(=O)[C@H](CC(N)=O)NC(=O)[C@H](CCCCN)NC(=O)CN3CCC(NC(=O)CN4CCN(CC(=O)O)CCN(CC(=O)O)CCN(CC(=O)O)CC4)CC3)[C@@H](C)O)(C(=O)N[C@@H](Cc3c[nH]c4ccccc34)C(N)=O)CC2)cc1F", "note": "[Compound 164] ({DOTA}-[X1]KNT[Phe(3-F)][azaGly]L[Api](Gly(N-(3-F-4-Me-benzyl)))W-NH2)", "Ki": "< 10"},
      {"smiles": "CNCC(=O)N1CCC(NC(=O)[C@H](CC(C)C)NC(=O)NNC(=O)[C@H](Cc2ccccc2)NC(=O)[C@@H](NC(=O)[C@H](CC(N)=O)NC(=O)[C@H](CCCCNC(=O)CN2CCN(CC(=O)O)CCN(CC(=O)O)CCN(CC(=O)O)CC2)NC(=O)[C@@H](Cc2ccc(O)cc2)NC(=O)CCOCCOCCNC(=O)CNCc2ccc(C)c(F)c2)[C@@H](C)O)(C(=O)N[C@H](Cc2c[nH]c3ccccc23)C(N)=O)CC1", "note": "[Compound 359] (H-[Gly(N-3-F-4-Me-benzyl)][PEG2][dY]K(DOTA)NTF[azaGly]L[Api](Sar)[dW]-NH2)", "Ki": "< 10"},
      {"smiles": "CC(C)C[C@H](NC(=O)NNC(=O)[C@H](Cc1ccccc1)NC(=O)[C@@H](NC(=O)[C@H](CC(N)=O)NC(=O)[C@@H](Cc1ccc2ccccc2c1)NC(=O)CCCCCNC(=O)CN1CCN(CC(=O)O)CCN(CC(=O)O)CCN(CC(=O)O)CC1)[C@@H](C)O)C(=O)NC1(C(=O)N[C@@H](Cc2ccccc2)C(N)=O)CCN(C(=N)N)CC1", "note": "[Compound 301] ({DOTA-Ahx}-[d2Nal]NTF[azaGly]L[Api(1-amidino)]F-NH2)", "Ki": "< 10"},
      {"smiles": "CCCCCCCC(=O)N[C@H](Cc1ccc(O)cc1)C(=O)N[C@H](Cc1c[nH]c2ccccc12)C(=O)N[C@@H](CC(N)=O)C(=O)N[C@H](C(=O)N[C@@H](CC1CCCCC1)C(=O)NNC(=O)N[C@@H](CC(C)C)C(=O)NC1(C(=O)N[C@@H](Cc2c[nH]c3ccccc23)C(N)=O)CCN(C(=O)CNCc2ccc(C)c(F)c2)CC1)[C@@H](C)O", "note": "[Compound 405] (Octanoyl-[dY][dW]NT[Cha][azaGly]L[Api](Gly(N-(3-F-4-Me-benzyl)))W-NH2)", "Ki": "< 10"},
      {"smiles": "CNCC(=O)N1CCC(NC(=O)[C@H](CC(C)C)NC(=O)NNC(=O)[C@H](Cc2ccccc2)NC(=O)[C@@H](NC(=O)[C@H](CC(N)=O)NC(=O)[C@H](CCCCNC(=O)CN2CCN(CC(=O)O)CCN(CC(=O)O)CCN(CC(=O)O)CC2)NC(=O)[C@@H](Cc2ccc(O)cc2)NC(=O)CNCc2ccc(C)c(F)c2)[C@@H](C)O)(C(=O)N[C@H](Cc2c[nH]c3ccccc23)C(N)=O)CC1", "note": "[Compound 360] (H-[Gly(N-3-F-4-Me-benzyl)][dY]K(DOTA)NTF[azaGly]L[Api](Sar)[dW]-NH2)", "Ki": "< 10"},
      {"smiles": "CNCC(=O)N1CCC(NC(=O)[C@H](CC(C)C)NC(=O)NNC(=O)[C@H](CC2CCCCC2)NC(=O)[C@@H](NC(=O)[C@H](CC(N)=O)NC(=O)[C@H](CCCCNC(=O)CN2CCN(CC(=O)O)CCN(CC(=O)O)CCN(CC(=O)O)CC2)NC(=O)[C@@H](Cc2ccc(O)cc2)NC(=O)CCOCCOCCNC(=O)CCc2ccc(C)cc2)[C@@H](C)O)(C(=O)N[C@@H](Cc2c[nH]c3ccccc23)C(N)=O)CC1", "note": "[Compound 387] ({Hydrocinnamoyl(4-Me)-PEG2}-[dY]K(DOTA)NT[Cha][azaGly]L[Api](Sar)W-NH2)", "Ki": "< 10"},
      {"smiles": "Cc1ccc(CNCC(=O)N2CCC(NC(=O)[C@H](CC(C)C)NC(=O)CNC(=O)[C@H](Cc3ccccc3)NC(=O)CCCCCNC(=O)CN3CCN(CC(=O)O)CCN(CC(=O)O)CCN(CC(=O)O)CC3)(C(=O)N[C@@H](Cc3ccc(O)cc3)C(N)=O)CC2)cc1F", "note": "[Compound 11] ({DOTA-Ahx}-FGL[Api](Gly(N-(3-F-4-Me-benzyl)))Y-NH2)", "Ki": "< 10"},
      {"smiles": "Cc1ccc(CNCC(=O)N2CCC(NC(=O)[C@H](CC(C)C)NC(=O)NNC(=O)[C@H](Cc3ccccc3)NC(=O)CCCCCNC(=O)[C@H](Cc3ccc(O)cc3)NC(=O)CNC(=O)c3ccc(CNC(=O)CN4CCN(CC(=O)O)CCN(CC(=O)O)CCN(CC(=O)O)CC4)cc3)(C(=O)N[C@@H](Cc3c[nH]c4ccccc34)C(N)=O)CC2)cc1F", "note": "[Compound 176] ({DOTA-4Amb}-GY[Ahx]F[azaGly]L[Api](Gly(N-(3-F-4-Me-benzyl)))W-NH2)", "Ki": "< 10"},
      {"smiles": "Cc1ccc(CNCC(=O)N2CCC(NC(=O)[C@H](CC(C)C)NC(=O)NNC(=O)[C@H](Cc3ccccc3)NC(=O)[C@@H](NC(=O)[C@H](CC(N)=O)NC(=O)[C@@H](Cc3c[nH]c4ccccc34)NC(=O)[C@@H](Cc3ccc(O)cc3)NC(=O)CCCCCNC(=O)CN3CCN(CC(=O)O)CCN(CC(=O)O)CCN(CC(=O)O)CC3)[C@@H](C)O)(C(=O)N[C@@H](Cc3ccc(C#N)cc3)C(N)=O)CC2)cc1F", "note": "[Compound 104] ({DOTA-Ahx}-[dY][dW]NTF[azaGly]L[Api](Gly(N-(3-F-4-Me-benzyl)))[Phe(4-CN)]-NH2)", "Ki": "< 10"},
      {"smiles": "Cc1ccc(CNCC(=O)N2CCC(NC(=O)[C@H](CC(C)C)NC(=O)NNC(=O)[C@H](Cc3ccccc3)NC(=O)CN3CCC(NC(=O)CN4CCN(CC(=O)O)CCN(CC(=O)O)CCN(CC(=O)O)CC4)CC3)(C(=O)N[C@@H](Cc3ccccc3)C(N)=O)CC2)cc1F", "note": "[Compound 245] ({DOTA}-[X1]F[azaGly]L[Api](Gly(N-(3-F-4-Me-benzyl)))F-NH2)", "Ki": "< 10"},
      {"smiles": "COCCOCCOCCC(=O)N[C@H](Cc1ccc(O)cc1)C(=O)N[C@@H](CCCCNC(=O)CN1CCN(CC(=O)O)CCN(CC(=O)O)CCN(CC(=O)O)CC1)C(=O)N[C@@H](CC(N)=O)C(=O)N[C@H](C(=O)N[C@@H](Cc1ccccc1)C(=O)NNC(=O)N[C@@H](CC(C)C)C(=O)NC1(C(=O)N[C@@H](Cc2c[nH]c3ccccc23)C(N)=O)CCN(C(=N)N)CC1)[C@@H](C)O", "note": "[Compound 197] ({Propanoyl(3-(MeO(CH2CH2O)2))}-[dY]K(DOTA)NTF[azaGly]L[Api(1-amidino)]W-NH2)", "Ki": "< 10"},
      {"smiles": "Cc1ccc(CNCC(=O)N2CCC(NC(=O)[C@H](CC(C)C)NC(=O)NNC(=O)[C@H](Cc3cccc(F)c3)NC(=O)[C@@H](NC(=O)[C@H](CC(N)=O)NC(=O)[C@H](CCC(=O)O)NC(=O)[C@H]3CC[C@H](CNC(=O)CN4CCN(CC(=O)O)CCN(CC(=O)O)CCN(CC(=O)O)CC4)CC3)[C@@H](C)O)(C(=O)N[C@@H](Cc3c[nH]c4ccccc34)C(N)=O)CC2)cc1F", "note": "[Compound 160] ({DOTA-Trx}-ENT[Phe(3-F)][azaGly]L[Api](Gly(N-(3-F-4-Me-benzyl)))W-NH2)", "Ki": "< 10"},
      {"smiles": "CC(C)C[C@H](NC(=O)[C@H](Cc1ccccc1)NC(=O)[C@H](CC(N)=O)NC(=O)[C@H](CCCNC(=N)N)NC(=O)[C@H](CC(N)=O)NC(=O)[C@@H](NC(=O)CCCCCNC(=O)CN1CCN(CC(=O)O)CCN(CC(=O)O)CCN(CC(=O)O)CC1)[C@@H](C)O)C(=O)NC1(C(=O)N[C@@H](Cc2ccccc2)C(N)=O)CCN(C(=N)N)CC1", "note": "[Compound 199] ({DOTA-Ahx}-TNRNFL[Api(1-amidino)]F-NH2)", "Ki": "> 100"},
      {"smiles": "CC(C)C[C@H](NC(=O)NNC(=O)[C@H](Cc1ccccc1)NC(=O)[C@@H](NC(=O)[C@H](CC(N)=O)NC(=O)[C@@H](Cc1ccc2ccccc2c1)NC(=O)[C@@H](Cc1ccc(O)cc1)NC(=O)CCOCCOCCNC(=O)CCc1ccc(I)cc1)[C@@H](C)O)C(=O)NC1(C(=O)N[C@@H](Cc2ccccc2)C(N)=O)CCN(C(=N)N)CC1", "note": "[Compound 396] ({Hydrocinnamoyl(4-I)-PEG2}-[dY][d2Nal]NTF[azaGly]L[Api(1-amidino)]F-NH2)", "Ki": "< 10"},
      {"smiles": "Cc1ccc(CNCC(=O)N2CCC(NC(=O)[C@H](CC(C)C)NC(=O)CNC(=O)[C@H](Cc3ccccc3)NC(=O)CCCCCNC(=O)CN3CCN(CC(=O)O)CCN(CC(=O)O)CCN(CC(=O)O)CC3)(C(=O)N[C@@H](Cc3c[nH]c4ccccc34)C(N)=O)CC2)cc1F", "note": "[Compound 10] ({DOTA-Ahx}-FGL[Api](Gly(N-(3-F-4-Me-benzyl)))W-NH2)", "Ki": "< 10"},
      {"smiles": "Cc1ccc(CNCC(=O)N2CCC(NC(=O)[C@H](CC(C)C)NC(=O)NNC(=O)[C@H](Cc3ccccc3)NC(=O)c3ccc(CNC(=O)CN4CCN(CC(=O)O)CCN(CC(=O)O)CCN(CC(=O)O)CC4)cc3)(C(=O)N[C@@H](Cc3c[nH]c4ccccc34)C(N)=O)CC2)cc1F", "note": "[Compound 109] ({DOTA-4Amb}-F[azaGly]L[Api](Gly(N-(3-F-4-Me-benzyl)))W-NH2)", "Ki": "< 10"}
    ]}
  ]
}
